Test results taken from patent publication US20110263822A1, “COMPOSITION FOR THE PROPHYLAXIS AND TREATMENT OF HBV INFECTIONS AND HBV-MEDIATED DISEASES” (Rhein Biotech Gesellschaft Fur Neue Biotechnologische …, priority 2003, published 2011).
Ends that are not written are not given here.

Biological target: MHC class I molecules K^b (Mus musculus, UniProt P01901)
Experiment: biochemical
Conditions: 48 hours at 18° C.; read-out: K^b-binding

MHC class I molecules K^b, sequence (P01901 whole entry, looked up): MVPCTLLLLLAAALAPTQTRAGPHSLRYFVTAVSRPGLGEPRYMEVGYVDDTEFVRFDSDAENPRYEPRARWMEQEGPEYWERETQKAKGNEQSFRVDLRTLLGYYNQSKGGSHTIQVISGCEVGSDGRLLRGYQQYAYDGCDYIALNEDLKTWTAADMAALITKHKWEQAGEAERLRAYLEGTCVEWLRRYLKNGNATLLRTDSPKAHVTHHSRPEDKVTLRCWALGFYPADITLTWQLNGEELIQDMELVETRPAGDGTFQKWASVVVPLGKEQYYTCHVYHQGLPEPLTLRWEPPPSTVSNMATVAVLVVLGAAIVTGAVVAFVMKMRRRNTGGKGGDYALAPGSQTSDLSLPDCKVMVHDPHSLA

Sequence: IVSPFIPL [IVSPFIPL]
- IC50: 773 nM
